Laboratory results taken from patent publication US20220308043A1, “FLUORESCENT PROBES FOR IDENTIFICATION AND QUANTIFICATION OF HEPATIC TRANSPORTERS IN VITRO AND IN VIVO” (Université d'Orléans, priority 2021, published 2022).
“Also recorded” adds a separate entry of the source. Where two headings read alike, the source gives them in different places. Each block holds one molecule with its values, some of them ahead of it.

Tests used:
[1] = tested on: bile canaliculi (BC) of HEPARG® cells; experiment: Bile canaliculi alterations evaluation for cholestasis-DILI prediction in HEPARG® cells; type: cell-based, human; details: for alteration of bile canaliculi (BC) revealed by fluorescent probe 15: HEPARG® cells, probe 15, versus control cells incubated only with 15, FIG. 9
Description: To investigate the application of fluorescent probes for predicting drug-induced cholestasis, cholestatic effects of six reference cholestatic drugs are evaluated by using two protocols.

[2] = tested on: BC; details: cited from earlier work
[3] = tested on: Efflux transporters; details: cited from earlier work
[4] = tested on: primary human hepatocyte (PHH)
Description: Four batches of primary human hepatocyte (PHH) are used for in vitro uptake assay:
Cryopreserved PHH are thawed in one-step Hepatocyte Thawing/Plating medium (MIL130) and then cells number and viability were evaluated with trypan blue exclusion test prior to cell treatment.
Influx study. Cryopreserved PHH are thawed in one-step Hepatocyte Thawing/Plating medium (MIL130) and then the cell number and viability are evaluated with trypan blue exclusion test prior to cell treatment. The cells were grown in MW96 at a density of 0.2*10^6/well.
Incubation for uptake evaluation. Incubation buffer: HBSS buffer containing 10 mM Herpes and 0.1% BSA, pH 7.4
The active uptake of each probe was tested according to the Test group 1 conditions. The results are presented in the table below as the percentage of active uptake compared to total uptake.

[5] = molecular target: T1, NTCP (Homo sapiens, UniProt Q14973); experiment: Uptake evaluation, Test group 2: probe uptake in PHH with Myrcludex (NTCP inhibitor); type: in vitro ADME; details: PHH pre-incubated 20 minutes with inhibitor, probe 5 μM, 30 minutes at 37° C.
T1 construct: Cryopreserved PHH are thawed in one-step Hepatocyte Thawing/Plating medium; endogenous in cells; host or cells: cryopreserved primary human hepatocytes (PHH)
T1 sequence (Q14973 1-349): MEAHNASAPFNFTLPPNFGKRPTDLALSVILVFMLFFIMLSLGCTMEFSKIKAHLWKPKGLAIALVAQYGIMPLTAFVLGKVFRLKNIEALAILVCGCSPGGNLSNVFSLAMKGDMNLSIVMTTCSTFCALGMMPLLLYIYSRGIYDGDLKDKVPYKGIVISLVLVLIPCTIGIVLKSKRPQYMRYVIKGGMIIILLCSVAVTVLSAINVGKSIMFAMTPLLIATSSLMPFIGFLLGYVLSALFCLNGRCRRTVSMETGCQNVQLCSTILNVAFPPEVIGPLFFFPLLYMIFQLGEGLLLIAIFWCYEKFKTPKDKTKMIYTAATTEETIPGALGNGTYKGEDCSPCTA

[6] = tested on: OCT; experiment: Uptake evaluation, Test group 2: probe uptake in PHH with Mpp (OCT inhibitor); type: in vitro ADME, human; details: PHH pre-incubated 20 minutes with inhibitor, probe 5 μM, 30 minutes at 37° C.
[7] = tested on: OATPs; details: PHH pre-incubated 20 minutes with inhibitor, probe 5 μM, 30 minutes at 37° C.
[8] = tested on: OATs
[9] = molecular target: T2, MRP2 (Homo sapiens, UniProt Q92887)
Description: (§2) Two HEPARG® cell lines are used as hepatic cell models for in vitro bile acid efflux assay.
(§3) Before the probe incubation assay, both differentiated HEPARG® wild-type and HEPARG® MRP2 KO cell cultures are washed once with Williams' Medium E (WME) with 0.1% BSA and then incubated with 1 to 5 μM of fluorescent probes (54, 55, 15) in WME with 0.1% BSA or 3 μM of CDFDA in WME at 37° C. for 30 min.
(§4) After incubation, the cell cultures are washed 4 times with WME medium containing 0.5% DMSO and 2% FBS.
(§5) The cell cultures are then observed with a fluorescence microscope and the cell images are taken and compared.
(§6) Both the differentiated wild-type HEPARG®™ and MPR2-KO HEPARG® cells are thawed in HEPARG® Thawing/Plating/General Purpose medium (MIL600/ADD670) and cultured in HEPARG® Maintenance/Metabolism Medium (MIL600/ADD620) (according to the user guide of Biopredic International). Fourteen to twenty days after cell seeding and maintenance, the fully differentiated and polarized cell cultures of both the wild-type and MRP2-KO HEPARG® cells are ready and used for the characterization of biological effects of fluorescent probes in term of specific Efflux Transporter-Mediated efflux of probes in the bile canaliculi of HEPARG® hepatocytes.

[10] = molecular target: T3, BSEP (Homo sapiens, UniProt O95342); experiment: Efflux assay approach 1: canalicular accumulation in wild-type HEPARG® hepatocytes with or without taurocholate (BSEP competitive inhibitor); type: cell-based; set-up: both uptake transporters and efflux transporters, such as BSEP, MRP2, Pgp and BCRP; host or cells: differentiated wild-type HepaRG hepatocytes; details: for dependence of efflux into BC on BSEP: conclusion in words; for probe fluorescence / accumulation in BC with taurocholate: taurocholate as competitive inhibitor of BSEP, 3 hours at 37° C., FIG. 4 image B, FIG. 5
Description: (§1) After washing with the WME containing 0.1% BSA, the cell cultures are then incubated with WME medium containing 0.1% BSA, with or without the different inhibitors (taurocholate, Verapamil, KO143) at the concentration indicated at the table E2 for 3 hours at 37° C.
Target sequence in this assay (O95342 whole entry): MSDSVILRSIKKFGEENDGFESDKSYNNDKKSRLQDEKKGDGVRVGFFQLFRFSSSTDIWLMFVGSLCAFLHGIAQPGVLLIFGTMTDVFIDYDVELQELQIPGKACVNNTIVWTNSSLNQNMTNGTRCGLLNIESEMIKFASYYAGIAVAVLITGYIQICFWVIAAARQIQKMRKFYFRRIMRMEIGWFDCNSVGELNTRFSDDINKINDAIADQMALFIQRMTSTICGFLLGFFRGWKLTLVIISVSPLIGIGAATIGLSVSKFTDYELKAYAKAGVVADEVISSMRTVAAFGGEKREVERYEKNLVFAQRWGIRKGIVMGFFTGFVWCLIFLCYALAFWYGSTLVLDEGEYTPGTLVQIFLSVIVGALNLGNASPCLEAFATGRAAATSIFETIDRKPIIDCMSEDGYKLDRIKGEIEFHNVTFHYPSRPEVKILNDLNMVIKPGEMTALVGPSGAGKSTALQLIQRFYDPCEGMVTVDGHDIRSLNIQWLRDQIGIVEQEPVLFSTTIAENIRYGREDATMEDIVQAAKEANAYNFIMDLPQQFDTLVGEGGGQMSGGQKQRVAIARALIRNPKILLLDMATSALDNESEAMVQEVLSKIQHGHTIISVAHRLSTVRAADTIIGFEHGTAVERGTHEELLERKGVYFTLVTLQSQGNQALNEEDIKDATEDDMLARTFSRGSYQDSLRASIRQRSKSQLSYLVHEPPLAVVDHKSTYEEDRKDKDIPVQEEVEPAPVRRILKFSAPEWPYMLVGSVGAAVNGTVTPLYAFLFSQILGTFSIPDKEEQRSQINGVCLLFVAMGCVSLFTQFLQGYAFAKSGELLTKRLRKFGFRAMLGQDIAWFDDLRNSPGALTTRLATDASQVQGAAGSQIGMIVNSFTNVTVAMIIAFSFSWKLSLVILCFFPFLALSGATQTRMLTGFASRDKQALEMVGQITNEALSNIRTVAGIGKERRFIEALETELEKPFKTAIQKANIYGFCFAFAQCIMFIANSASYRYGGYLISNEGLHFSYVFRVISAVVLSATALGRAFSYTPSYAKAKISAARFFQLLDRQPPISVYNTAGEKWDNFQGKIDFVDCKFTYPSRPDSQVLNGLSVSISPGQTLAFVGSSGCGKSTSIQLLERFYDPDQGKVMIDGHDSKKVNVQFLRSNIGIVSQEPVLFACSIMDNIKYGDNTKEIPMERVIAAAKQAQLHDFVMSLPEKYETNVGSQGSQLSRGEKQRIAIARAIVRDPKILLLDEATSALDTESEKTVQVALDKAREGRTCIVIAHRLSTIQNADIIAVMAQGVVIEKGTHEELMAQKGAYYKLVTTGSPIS

[11] = molecular target: T4, BCRP (Homo sapiens, UniProt Q9UNQ0); experiment: Efflux assay approach 1: canalicular accumulation in wild-type HEPARG® hepatocytes with or without KO143 (BCRP inhibitor); type: cell-based; details: 3 hours at 37° C., FIG. 4 image C
T4 construct: both uptake transporters and efflux transporters, such as BSEP, MRP2, Pgp and BCRP; host or cells: differentiated wild-type HepaRG hepatocytes
T4 sequence (Q9UNQ0 1-655): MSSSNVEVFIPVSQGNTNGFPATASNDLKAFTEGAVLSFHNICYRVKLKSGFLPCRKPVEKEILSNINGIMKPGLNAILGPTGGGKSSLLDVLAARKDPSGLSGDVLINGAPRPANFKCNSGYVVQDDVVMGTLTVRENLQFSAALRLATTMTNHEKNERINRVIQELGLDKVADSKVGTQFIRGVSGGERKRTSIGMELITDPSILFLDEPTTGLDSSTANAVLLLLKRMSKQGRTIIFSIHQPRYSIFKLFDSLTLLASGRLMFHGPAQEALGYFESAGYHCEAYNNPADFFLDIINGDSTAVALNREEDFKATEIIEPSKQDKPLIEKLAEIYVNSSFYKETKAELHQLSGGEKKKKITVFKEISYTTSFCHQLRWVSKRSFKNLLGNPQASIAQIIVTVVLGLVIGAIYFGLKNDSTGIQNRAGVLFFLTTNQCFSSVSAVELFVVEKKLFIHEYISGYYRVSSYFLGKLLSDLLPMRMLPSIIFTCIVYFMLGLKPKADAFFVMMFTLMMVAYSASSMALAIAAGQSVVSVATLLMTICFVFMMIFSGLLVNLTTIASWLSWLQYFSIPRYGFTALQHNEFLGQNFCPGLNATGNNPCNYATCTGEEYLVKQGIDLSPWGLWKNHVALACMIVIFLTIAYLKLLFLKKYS
Description: as §1

[12] = molecular target: T5, Pgp (Homo sapiens, UniProt P08183); experiment: Efflux assay approach 1: canalicular accumulation in wild-type HEPARG® hepatocytes with or without Verapamil (Pgp inhibitor); type: cell-based; details: 3 hours at 37° C., FIG. 4 image D
T5 construct: both uptake transporters and efflux transporters, such as BSEP, MRP2, Pgp and BCRP; host or cells: differentiated wild-type HepaRG hepatocytes
Description: as §1

[13] = molecular target: T3, BSEP; experiment: Efflux assay approach 2: uptake in ABC transporter vesicles (Sf9) in the presence of ATP or AMP; type: in vitro ADME; set-up: purchased Genomembrane GM3010, GM3030 and GM3050 (reagent kits); host or cells: Sf9 cells; details: 10 minutes, FIG. 6
Description: Fluorescent probes were incubated with vesicles at 1 and 10 μM during 10 minutes, while the reference substrates were incubated at the test conditions indicated above. • Approach 3: specificity assessment with HEPARG® MRP2 KO
Transporter assay. Reagent kits for Vesicular Transport Assay from Genomembrane (GM3010, GM3030 and GM3050) were used to determine the specificity of ABC transporters versus tested probes.
The vesicles transfected with BSEP transporter were incubated with the 2 probes 54 and 55 in the presence of ATP or AMP in order to determine the interaction specificity between the probe and the transporter.
Target sequence in this assay (O95342 whole entry, species assumed): as the sequence (O95342 whole entry) above

[14] = molecular target: T2, MRP2; experiment: Efflux assay approach 3: canalicular accumulation in HEPARG® MRP2 KO and wild-type cells; details: for dependence of canalicular efflux on ABC transporter MRP2: conclusion from MRP2 KO accumulation profile; for accumulation / fluorescence intensity in the BC of HEPARG® MRP2 KO cells: probes 1 to 5 μM or 3 μM CDFDA, 37° C., 30 min, FIG. 7
Description: as §2, §3, §4, §5, §6

[15] = tested on: OATs; experiment: Uptake evaluation, Test group 2: probe uptake in PHH with Indomethacine/Diclofenac (OATs inhibitor); details: PHH pre-incubated 20 minutes with inhibitor, probe 5 μM, 30 minutes at 37° C.

T2 sequence (Q92887 whole entry): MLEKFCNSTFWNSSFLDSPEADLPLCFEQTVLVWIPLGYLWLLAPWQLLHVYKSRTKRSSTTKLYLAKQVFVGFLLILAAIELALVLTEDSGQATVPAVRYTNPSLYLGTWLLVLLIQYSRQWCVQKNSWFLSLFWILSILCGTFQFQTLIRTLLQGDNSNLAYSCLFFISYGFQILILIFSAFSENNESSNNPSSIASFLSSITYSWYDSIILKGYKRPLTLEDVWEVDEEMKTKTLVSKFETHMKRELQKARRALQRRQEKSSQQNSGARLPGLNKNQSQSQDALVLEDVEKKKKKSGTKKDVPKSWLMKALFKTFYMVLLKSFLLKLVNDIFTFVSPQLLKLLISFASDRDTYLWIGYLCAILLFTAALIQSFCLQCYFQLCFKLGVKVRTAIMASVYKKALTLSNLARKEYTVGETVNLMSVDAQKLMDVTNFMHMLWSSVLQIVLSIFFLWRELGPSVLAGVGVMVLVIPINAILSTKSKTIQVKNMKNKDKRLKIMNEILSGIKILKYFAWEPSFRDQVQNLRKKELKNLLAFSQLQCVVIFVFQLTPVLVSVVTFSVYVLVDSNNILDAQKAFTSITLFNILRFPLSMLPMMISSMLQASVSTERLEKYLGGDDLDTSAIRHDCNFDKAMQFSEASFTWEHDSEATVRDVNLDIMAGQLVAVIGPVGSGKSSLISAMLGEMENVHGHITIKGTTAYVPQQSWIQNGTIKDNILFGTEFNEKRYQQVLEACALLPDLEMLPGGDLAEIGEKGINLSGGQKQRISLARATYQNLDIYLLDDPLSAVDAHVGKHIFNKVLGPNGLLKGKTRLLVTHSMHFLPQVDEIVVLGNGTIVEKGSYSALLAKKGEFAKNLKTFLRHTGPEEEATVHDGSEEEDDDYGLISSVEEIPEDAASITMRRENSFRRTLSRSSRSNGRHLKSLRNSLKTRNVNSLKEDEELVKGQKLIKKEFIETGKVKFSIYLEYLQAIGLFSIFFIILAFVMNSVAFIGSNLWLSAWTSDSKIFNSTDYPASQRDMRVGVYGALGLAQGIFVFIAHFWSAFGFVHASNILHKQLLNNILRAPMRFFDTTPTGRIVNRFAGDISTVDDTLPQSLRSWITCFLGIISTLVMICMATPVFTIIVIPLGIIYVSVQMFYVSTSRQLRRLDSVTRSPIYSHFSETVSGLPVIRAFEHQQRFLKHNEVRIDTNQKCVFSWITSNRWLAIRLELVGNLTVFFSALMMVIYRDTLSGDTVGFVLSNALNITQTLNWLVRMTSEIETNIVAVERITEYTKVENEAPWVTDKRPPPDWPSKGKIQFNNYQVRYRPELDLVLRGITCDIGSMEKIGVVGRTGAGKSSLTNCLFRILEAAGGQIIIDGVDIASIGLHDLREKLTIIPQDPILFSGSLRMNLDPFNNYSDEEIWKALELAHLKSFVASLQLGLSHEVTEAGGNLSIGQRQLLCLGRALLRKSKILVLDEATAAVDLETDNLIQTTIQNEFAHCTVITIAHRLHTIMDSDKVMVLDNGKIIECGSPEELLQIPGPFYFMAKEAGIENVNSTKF
T5 sequence (P08183 whole entry): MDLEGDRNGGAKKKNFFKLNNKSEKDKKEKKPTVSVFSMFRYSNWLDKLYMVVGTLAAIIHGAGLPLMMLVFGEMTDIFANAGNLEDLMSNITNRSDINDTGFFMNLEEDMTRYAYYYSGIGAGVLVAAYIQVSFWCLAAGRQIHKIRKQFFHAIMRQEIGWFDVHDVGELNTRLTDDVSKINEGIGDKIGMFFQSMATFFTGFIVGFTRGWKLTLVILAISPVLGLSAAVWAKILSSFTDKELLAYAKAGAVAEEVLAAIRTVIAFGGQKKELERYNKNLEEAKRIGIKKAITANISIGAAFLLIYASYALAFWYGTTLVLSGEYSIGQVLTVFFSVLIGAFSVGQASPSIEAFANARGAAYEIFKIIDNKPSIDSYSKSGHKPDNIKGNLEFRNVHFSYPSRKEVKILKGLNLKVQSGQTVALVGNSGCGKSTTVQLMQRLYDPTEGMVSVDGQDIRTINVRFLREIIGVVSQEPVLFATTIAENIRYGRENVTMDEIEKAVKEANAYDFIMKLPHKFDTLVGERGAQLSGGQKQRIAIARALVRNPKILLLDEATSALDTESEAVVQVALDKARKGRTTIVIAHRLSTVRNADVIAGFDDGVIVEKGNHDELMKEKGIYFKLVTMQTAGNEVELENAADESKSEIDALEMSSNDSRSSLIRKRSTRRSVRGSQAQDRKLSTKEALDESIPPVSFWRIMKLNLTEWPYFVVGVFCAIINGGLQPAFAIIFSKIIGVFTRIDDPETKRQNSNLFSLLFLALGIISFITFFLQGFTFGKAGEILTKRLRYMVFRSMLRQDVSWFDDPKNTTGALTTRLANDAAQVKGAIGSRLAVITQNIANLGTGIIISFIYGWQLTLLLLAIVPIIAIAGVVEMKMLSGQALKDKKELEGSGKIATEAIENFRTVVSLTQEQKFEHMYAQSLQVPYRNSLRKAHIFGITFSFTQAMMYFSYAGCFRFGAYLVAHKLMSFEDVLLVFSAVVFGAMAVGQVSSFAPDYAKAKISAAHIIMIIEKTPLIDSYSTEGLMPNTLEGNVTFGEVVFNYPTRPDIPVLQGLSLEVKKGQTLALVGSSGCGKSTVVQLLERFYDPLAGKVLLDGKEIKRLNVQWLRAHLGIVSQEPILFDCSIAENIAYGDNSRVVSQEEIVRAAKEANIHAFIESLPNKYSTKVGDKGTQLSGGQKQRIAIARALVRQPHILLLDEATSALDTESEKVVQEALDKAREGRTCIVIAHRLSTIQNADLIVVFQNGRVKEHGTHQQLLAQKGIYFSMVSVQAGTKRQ

Molecule: CC(=O)Nc1ccc(O)cc1 [Acetaminophen]
Protocol 1 Effects on BC morphology and BA transporters CDFDA ([1]; drug 3 hours at 37° C., then probe CDFDA 3 μM 30 min, FIG. 8A): No effect
Theoretical effect: Induced effect on BC [2]: None
Theoretical effect: Efflux transporters interaction [3]: None

Molecule: COc1ccccc1Oc1c(NS(=O)(=O)c2ccc(C(C)(C)C)cc2)nc(-c2ncccn2)nc1OCCO [Bosentan]
alteration of bile canaliculi (BC) revealed by fluorescent probe 15 [1]: important dilation
Theoretical effect: Induced effect on BC [2]: dilation
Theoretical effect: Efflux transporters interaction [3]: MRP2/BSEP

Molecule: CN(C)CCCN1c2ccccc2Sc2ccc(Cl)cc21 [Chlorpromazine]
alteration of bile canaliculi (BC) revealed by fluorescent probe 15 ([1]; listed as CPZ): remarkable constriction of BC; also recorded: detectable constriction of BC
Theoretical effect: Induced effect on BC [2]: constriction
Theoretical effect: Efflux transporters interaction [3]: MRP2/BSEP

Molecule: COC(=O)[C@H](CCCCNc1ccc([N+](=O)[O-])c2nonc12)NC(=O)CC[C@@H](C)C1CCC2C3C(CC[C@@]21C)[C@@]1(C)CC[C@@H](O)CC1C[C@@H]3O (stereo partly drawn) [Compound 15, Methyl-N2-((4R)-4-((3R,7S,10S,13R)-3,7-dihydroxy-10,13-dimethylhexadecahydro-1H-cyclopenta[a]phenanthren-17-yl)pentanoyl)-N6-(7-nitrobenzo[c][1,2,5]oxadiazol-4-yl)-L-lysinate]
% Active uptake (Mean value) ([4]; human, 30 min, 5 μM, pH 7.4): 31%
% of inhibition Myrcludex (NTCP inhibitor) [5]: 16%
% of inhibition Mpp (OCT inhibitor) [6]: 11%
% of inhibition Rifampicine (OATPs inhibitor) [7]: 34%
involvement of OATs in the uptake of the probe [8]: mainly dependent on OAT family
dependence of canalicular efflux on ABC transporter MRP2 [9]: independent
dependence of efflux into BC on BSEP [10]: weakly dependent on BSEP
probe fluorescence / accumulation in BC with taurocholate [10]: partial inhibition profile

type of probe uptake (active transport or passive diffusion) [4]: mainly mediated by transporters
BC accumulation with inhibitor of BCRP (KO143) versus control cells [11]: no visible difference
BC accumulation with inhibitor of Pgp (Verapamil) versus control cells [12]: no visible difference
dependence of canalicular efflux on ABC transporter MRP2 [14]: independent
accumulation / fluorescence intensity in the BC of HEPARG® MRP2 KO cells [14]: stronger fluorescence intensity
Molecule: COC(=O)C(CCCCNC(=O)CCc1ccc2n1[B-](F)(F)[N+]1=C(C)C=C(C)C1=C2)NC(=O)CCC(C)C1CCC2C3C(O)CC4CC(O)CCC4(C)C3CCC12C [Compound 54, Methyl N6-(3-(5,5-difluoro-7,9-dimethyl-5H-dipyrrolo[1,2-c:2′,1′-f][1,3,2]diazaborinin-3-yl)propanoyl)-N2-((4R)-4-((3R,7S,10S,13R,17R)-3,7-dihydroxy-10,13-dimethylhexadecahydro-1H-cyclopenta[a]phenanthren-17-yl)pentanoyl)-L-lysinate]
uptake in vesicles ATP/AMP ([13]; whatever probe concentrations (1 and 10 μM)): no difference
dependence of efflux into BC on BSEP [10]: substrate of BSEP
probe fluorescence / accumulation in BC with taurocholate [10]: significant decrease
accumulation of probe fluorescence in BC of HEPARG® hepatocytes ([10]; without any inhibitor, FIG. 4 image A): significant accumulation

type of probe uptake (active transport or passive diffusion) [4]: mainly mediated by transporters
BC accumulation with inhibitor of BCRP (KO143) versus control cells [11]: independent
BC accumulation with inhibitor of Pgp (Verapamil) versus control cells [12]: independent
dependence of canalicular efflux on ABC transporter MRP2 [14]: independent
accumulation / fluorescence intensity in the BC of HEPARG® MRP2 KO cells [14]: stronger fluorescence intensity
Molecule: COC(=O)CNC(=O)C(CCCCNC(=O)CCc1ccc2n1[B-](F)(F)[N+]1=C(C)C=C(C)C1=C2)NC(=O)CCC(C)C1CCC2C3C(O)CC4CC(O)CCC4(C)C3CCC12C [Compound 55, Methyl-N6-(3-(5,5-difluoro-7,9-dimethyl-5H-dipyrrolo[1,2-c:2′,1′-f][1,3,2]diazaborinin-3-yl)propanoyl)-N2-((4R)-4-((3R,7S,10S,13R,17R)-3,7-dihydroxy-10,13-dimethylhexadecahydro-1H-cyclopenta[a]phenanthren-17-yl)pentanoyl)-L-lysylglycinate]
uptake inside the membrane vesicles in the presence of ATP compared to AMP ([13]; probe at 10 μM): significant uptake

Molecule: O=S(=O)(c1cccc2cnccc12)N1CCCNCC1 [Fasudil]
Theoretical effect: Efflux transporters interaction [3]: No

Molecule: Cc1c(C)c2c(c(C)c1O)CCC(C)(COc1ccc(CC3SC(=O)NC3=O)cc1)O2 (centres unmarked) [Troglitazone]
Theoretical effect: Induced effect on BC [2]: constriction

% of inhibition Myrcludex (NTCP inhibitor) [5]: 81%
Molecule: Tauro-nor-THCA-24-DBD [reference compound]
% of inhibition Mpp (OCT inhibitor) [6]: 26%
% of inhibition Rifampicine (OATPs inhibitor) [7]: 24%
% of inhibition Indomethacine/Diclofenac (OATs inhibitor) [15]: 50%
